Like-named read-outs stand apart in the source and are kept apart here.
How the values were obtained:
CYP2C8 = biological target: T1, CYP2C8 (Homo sapiens, UniProt P10632); experiment: in vitro; settings: both, pH 7.4
T1 sequence (P10632 1-490): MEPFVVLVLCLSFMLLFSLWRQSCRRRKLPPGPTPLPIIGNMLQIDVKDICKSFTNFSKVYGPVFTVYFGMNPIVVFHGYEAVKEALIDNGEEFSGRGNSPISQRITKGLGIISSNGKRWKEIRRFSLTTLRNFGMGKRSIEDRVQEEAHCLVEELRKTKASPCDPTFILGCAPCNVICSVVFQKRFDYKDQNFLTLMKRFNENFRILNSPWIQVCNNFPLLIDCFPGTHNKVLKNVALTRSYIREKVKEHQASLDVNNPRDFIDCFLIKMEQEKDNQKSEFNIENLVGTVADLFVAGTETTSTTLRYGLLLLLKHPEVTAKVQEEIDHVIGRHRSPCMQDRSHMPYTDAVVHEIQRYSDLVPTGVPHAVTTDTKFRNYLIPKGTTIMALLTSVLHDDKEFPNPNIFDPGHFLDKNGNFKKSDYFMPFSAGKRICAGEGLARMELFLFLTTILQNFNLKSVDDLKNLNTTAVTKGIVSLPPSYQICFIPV

[1] = assay type: physicochemical
Procedure: All conditions and stock preparation procedures were identical to the conditions applied in the transporter assays (Table 74, Table 75 and Table 76). […] A follow-up assay was carried out at 7 concentrations in order to correct the nominal concentrations for the IC50 calculations (Table 78). Where NSB was observed (>20% loss) the assay concentrations were corrected according to the result of the respective NSB assay.
All conditions and stock preparation procedures were identical to the conditions applied in the transporter assays.
Samples (1.5×C0 or Total) were immediately taken after mixing to determine the total initial concentrations. The assay mixes were pre-incubated for 15 minutes at 37° C. and at 32° C. in case of BCRP and MDR1. After the pre-incubation step the assay mixes were 1.5-times diluted with (pre-warmed) transport buffer reaching the final nominal concentrations of the compounds in the VT assay and then were further incubated at 37° C. or 32° C. for BCRP and MDR1 and sampled in the end of incubation (timc).
The aqueous buffer was mixed, and samples (C0 or Total) were immediately taken for determining the total initial concentrations. The helper plate was pre-warmed for 15 minutes at 37° C. The pre-warmed aliquots of the aqueous buffers with the test articles (50 μL) were transferred from the helper plate into the wells of another 96-well plate (assay plate) and incubated for 30 minutes (pre-incubation) then removed from the wells. Thereafter the same wells of the assay plate were dosed again with other aliquots of the aqueous buffers with the test articles and were further incubated in the assay plate at 37° C. and finally sampled (tinc).

[2] = HBSS (pH 7.4) uptake buffer, 37° C., nominal 3.00 μM
[3] = HBSS (pH 7.4) uptake buffer, 37° C., nominal 30.00 μM
[4] = KH (pH 8.0) uptake buffer, 37° C., nominal 3.00 μM
[5] = KH (pH 8.0) uptake buffer, 37° C., nominal 30.00 μM
[6] = Transport buffer with sucrose (pH 7.4), BCRP and MDR1 VT, 32° C., nominal C0 5.00 μM
[7] = Transport buffer with sucrose (pH 7.4), BCRP and MDR1 VT, 32° C., nominal C0 50.00 μM

In the case of `OC1(c2ccc(Cl)cc2)c2ccccc2C2=NCCN21` (stereo not shown) [Compound A, 5-(4-chlorophenyl)-2,3-dihydroimidazo[1,2-b]isoindol-5-ol, reference compound], the inhibition at 10 µM (CYP2C8) was 48.9%, the “Non-specific binding (NSB)” value ([1]; BCRP, BSEP and MDR1 VT inhibition assay setup) was “did not show any NSB” and the “Non-specific binding (NSB)” value ([1]; HBSS (pH 7.4) and KH (pH 8.0) uptake assay buffers) was “did not show any NSB”. For the same compound, the Concentration after incubation [1, 2] was 1.85 ± 0.13 µM, the “Loss of Compound A during the NSB assay” value [1, 2] was 14% and the Measured dosing concentrations [1, 2] was 2.16 ± 0.05 µM. The Concentration after incubation [1, 3] was 17.66 ± 0.35 µM, the “Loss of Compound A during the NSB assay” value [1, 3] was 15% and the Measured dosing concentrations [1, 3] was 20.71 ± 0.67 µM. The Concentration after incubation [1, 4] was 1.86 ± 0.06 µM, the “Loss of Compound A during the NSB assay” value [1, 4] was 20% and the Measured dosing concentrations [1, 4] was 2.31 ± 0.11 µM. The Concentration after incubation [1, 5] was 18.15 ± 0.42 µM, the “Loss of Compound A during the NSB assay” value [1, 5] was 18% and the Measured dosing concentrations [1, 5] was 22.13 ± 0.61 µM. For the same compound, the “Concentration after incubation (tinc)” value [1, 6] was 6.27 ± 0.69 µM, the “Loss of Compound A during the NSB assay” value [1, 6] was 3% and the “Measured dosing concentrations ([…] C0)” value [1, 6] was 9.65 ± 1.52 µM. For the same compound, the “Concentration after incubation (tinc)” value [1, 7] was 55.92 ± 2.44 µM, the “Loss of Compound A during the NSB assay” value [1, 7] was −2% and the “Measured dosing concentrations ([…] C0)” value [1, 7] was 82.20 ± 3.76 µM. For the same compound, the “Microscopy results (solubility)” value (HBSS (pH 7.4) for OAT1, OAT3, OATP1B1, OATP1B3, OCT1, OCT2 uptake inhibition assay, 37° C., 6.25 μM nominal) was “Soluble”, the “Microscopy results (solubility)” value (HBSS (pH 7.4) for OAT1, OAT3, OATP1B1, OATP1B3, OCT1, OCT2 uptake inhibition assay, 37° C., 30.00 μM nominal) was “Soluble” and the “Microscopy results (solubility)” value (HBSS (pH 7.4) for OAT1, OAT3, OATP1B1, OATP1B3, OCT1, OCT2 uptake inhibition assay, 37° C., 40.00 μM nominal) was “Insoluble”. For the same compound, the “Microscopy results (solubility)” value (HBSS (pH 7.4) for OAT1, OAT3, OATP1B1, OATP1B3, OCT1, OCT2 uptake inhibition assay, 37° C., 50.00 μM nominal) was “Insoluble”, the “Microscopy results (solubility)” value (HBSS (pH 7.4) for OAT1, OAT3, OATP1B1, OATP1B3, OCT1, OCT2 uptake inhibition assay, 37° C., 100.00 μM nominal) was “Insoluble” and the “Microscopy results (solubility)” value (KH (pH 8.0) for MATE1, MATE2-K uptake inhibition assay, 37° C., 6.25 μM nominal) was “Soluble”. For the same compound, the “Microscopy results (solubility)” value (KH (pH 8.0) for MATE1, MATE2-K uptake inhibition assay, 37° C., 30.00 μM nominal) was “Soluble”, the “Microscopy results (solubility)” value (KH (pH 8.0) for MATE1, MATE2-K uptake inhibition assay, 37° C., 40.00 μM nominal) was “Insoluble” and the “Microscopy results (solubility)” value (KH (pH 8.0) for MATE1, MATE2-K uptake inhibition assay, 37° C., 50.00 μM nominal) was “Insoluble”. For the same compound, the “Microscopy results (solubility)” value (KH (pH 8.0) for MATE1, MATE2-K uptake inhibition assay, 37° C., 100.00 μM nominal) was “Insoluble”, the “Microscopy results (solubility)” value (Transport buffer (pH 7.4) for BSEP VT inhibition assay, 37° C., 6.25 μM nominal) was “Soluble” and the “Microscopy results (solubility)” value (Transport buffer (pH 7.4) for BSEP VT inhibition assay, 37° C., 30.00 μM nominal) was “Soluble”. The “Microscopy results (solubility)” value (Transport buffer (pH 7.4) for BSEP VT inhibition assay, 37° C., 40.00 μM nominal) was “Insoluble”, the “Microscopy results (solubility)” value (Transport buffer (pH 7.4) for BSEP VT inhibition assay, 37° C., 50.00 μM nominal) was “Insoluble” and the “Microscopy results (solubility)” value (Transport buffer (pH 7.4) for BSEP VT inhibition assay, 37° C., 100.00 μM nominal) was “Insoluble”. For the same compound, the “Microscopy results (solubility)” value (Transport buffer with sucrose (pH 7.4) for BCRP and MDR1 VT inhibition assay, 32° C., 6.25 μM nominal) was “Soluble”, the “Microscopy results (solubility)” value (Transport buffer with sucrose (pH 7.4) for BCRP and MDR1 VT inhibition assay, 32° C., 50.00 μM nominal) was “Soluble” and the “Microscopy results (solubility)” value (Transport buffer with sucrose (pH 7.4) for BCRP and MDR1 VT inhibition assay, 32° C., 60.00 μM nominal) was “Insoluble”. For the same compound, the “Microscopy results (solubility)” value (Transport buffer with sucrose (pH 7.4) for BCRP and MDR1 VT inhibition assay, 32° C., 70.00 μM nominal) was “Insoluble”, the “Microscopy results (solubility)” value (Transport buffer with sucrose (pH 7.4) for BCRP and MDR1 VT inhibition assay, 32° C., 80.00 μM nominal) was “Insoluble” and the “Microscopy results (solubility)” value (Transport buffer with sucrose (pH 7.4) for BCRP and MDR1 VT inhibition assay, 32° C., 90.00 μM nominal) was “Insoluble”. The “Microscopy results (solubility)” value (Transport buffer with sucrose (pH 7.4) for BCRP and MDR1 VT inhibition assay, 32° C., 100.00 μM nominal) was “Insoluble”.
